In ChEMBL document CHEMBL5150027, “The inhibition of monoamine oxidase by 2H-1,4-benzothiazin-3(4H)-ones” (Bioorg Med Chem Lett, 2022):

Assays:
[1] = molecular target: T1, Amine oxidase [flavin-containing] A (Homo sapiens, UniProt P21397); experiment: Inhibition of recombinant human MAO-A using kynuramine as substrate assessed as inhibition of 4-hydroxyquinoline formation incubated for 20 mins by fluorescence spectrophotometric analysis
T1 sequence (P21397 whole entry): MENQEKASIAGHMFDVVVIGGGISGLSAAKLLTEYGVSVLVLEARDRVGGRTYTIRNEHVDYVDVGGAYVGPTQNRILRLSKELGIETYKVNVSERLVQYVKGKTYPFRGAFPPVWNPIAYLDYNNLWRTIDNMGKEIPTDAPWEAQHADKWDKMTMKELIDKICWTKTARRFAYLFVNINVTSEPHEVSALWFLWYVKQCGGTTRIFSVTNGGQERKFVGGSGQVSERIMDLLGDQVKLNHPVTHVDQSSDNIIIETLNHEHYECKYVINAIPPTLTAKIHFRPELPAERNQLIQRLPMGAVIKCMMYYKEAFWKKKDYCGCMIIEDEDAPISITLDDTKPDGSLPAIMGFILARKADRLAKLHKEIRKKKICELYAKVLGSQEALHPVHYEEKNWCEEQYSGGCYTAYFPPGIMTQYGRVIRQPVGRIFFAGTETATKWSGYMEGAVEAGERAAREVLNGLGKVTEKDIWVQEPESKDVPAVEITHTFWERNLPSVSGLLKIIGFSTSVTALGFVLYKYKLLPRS

[2] = molecular target: T2, Amine oxidase [flavin-containing] B (Homo sapiens, UniProt P27338)
T2 sequence (P27338 whole entry): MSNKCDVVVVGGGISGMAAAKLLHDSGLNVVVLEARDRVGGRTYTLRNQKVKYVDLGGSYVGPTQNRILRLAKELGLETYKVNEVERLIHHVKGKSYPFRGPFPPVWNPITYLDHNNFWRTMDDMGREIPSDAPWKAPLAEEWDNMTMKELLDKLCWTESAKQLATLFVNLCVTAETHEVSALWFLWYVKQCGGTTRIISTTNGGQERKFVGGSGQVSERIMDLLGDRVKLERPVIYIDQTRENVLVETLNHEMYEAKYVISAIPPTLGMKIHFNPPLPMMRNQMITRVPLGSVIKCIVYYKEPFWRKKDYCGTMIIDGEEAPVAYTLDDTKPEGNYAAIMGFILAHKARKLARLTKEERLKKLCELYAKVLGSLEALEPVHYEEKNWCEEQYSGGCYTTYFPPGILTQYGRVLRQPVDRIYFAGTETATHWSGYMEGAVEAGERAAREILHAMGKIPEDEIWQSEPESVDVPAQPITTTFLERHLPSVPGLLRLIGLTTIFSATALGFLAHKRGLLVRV

[3] = molecular target: T2, Amine oxidase [flavin-containing] B; experiment: Competitive inhibition of recombinant human MAO-B using kynuramine as substrate assessed as enzyme-inhibitor dissociation constant at varying substrate concentration by Lineweaver-burk plot analysis
[4] = molecular target: D-amino-acid oxidase (Sus scrofa, UniProt P00371); experiment: Inhibition of porcine kidney DAAO using D-serine as substrate assessed as H2O2 formation by amplex red and peroxidase-coupled continuous fluorescence spectrophotometric analysis
Sequence of D-amino-acid oxidase (P00371 whole entry): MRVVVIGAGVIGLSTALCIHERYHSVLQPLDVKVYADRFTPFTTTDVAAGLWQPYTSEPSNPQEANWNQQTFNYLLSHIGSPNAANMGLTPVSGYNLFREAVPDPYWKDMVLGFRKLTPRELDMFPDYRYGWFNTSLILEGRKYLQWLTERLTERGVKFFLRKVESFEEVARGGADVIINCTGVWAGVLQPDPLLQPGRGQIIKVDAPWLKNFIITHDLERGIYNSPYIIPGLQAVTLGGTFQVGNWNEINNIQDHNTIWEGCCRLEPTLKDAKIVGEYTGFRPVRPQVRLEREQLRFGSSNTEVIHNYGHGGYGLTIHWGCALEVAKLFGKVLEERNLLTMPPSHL

Row | IC50 [1] [µM] | IC50 [2] [µM] | Ki [3] [µM] | IC50 [4] [µM] | SMILES
1 | 21.1 | 42.6 | – | – | COc1ccc2c(c1)SCC(=O)N2
2 | 13.1 | 0.167 | – | – | O=C1CSc2cc(OCCc3ccccc3)ccc2N1
3 | 19.2 | 20 | – | 4.2 | O=C1CSc2cc(O)ccc2N1
4 | 96.8 | 0.02 | – | – | O=C1CSc2cc(OCCCc3ccccc3)ccc2N1
5 | 6.51 | 2.87 | – | – | CCCOc1ccc2c(c1)SCC(=O)N2

Further lines, the compound ahead of its results:

Row | SMILES | IC50 [1] [µM] | IC50 [2] [µM] | Ki [3] [µM] | IC50 [4] [µM]
6 | N#Cc1ccc(COc2ccc3c(c2)SCC(=O)N3)cc1 | 0.714 | 0.0096 | 0.0067 | 47.5
7 | O=C1CSc2cc(OCc3ccc(Br)cc3)ccc2N1 | 15.6 | 0.0041 | – | –
8 | O=C1CSc2cc(OCC3CCCCC3)ccc2N1 | 1.17 | 0.024 | – | –
9 | O=C1CSc2cc(OCc3ccccc3)ccc2N1 | 8.06 | 0.071 | – | –
10 | O=C1CSc2cc(OCc3ccc(Cl)cc3)ccc2N1 | 24.4 | 0.0027 | – | 73.2
11 | Cc1ccc(COc2ccc3c(c2)SCC(=O)N3)cc1 | – | 0.0082 | – | –
